From the supplement of paper PMC10307832

Assays:
Test in all cases: relative viability (nuclei count vs DMSO), 5 days (fraction); higher = more cells survive
GSK-J4 + Decitabine = compound: CCOC(=O)CCNc1cc(N2CCc3ccccc3CC2)nc(-c2ccccn2)n1 [GSK-J4] + Nc1ncn([C@H]2C[C@H](O)[C@@H](CO)O2)c(=O)n1 [Decitabine] (partner 2 µM)
How it was run: (§1)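 A single step with final 0.05% Triton X-100, 1% formaldehyde and 1 ug/ml Hoechst fixed the cells and stained nuclei 5 days after treatment. Lung cancer cell lines in 1536-well plates had been treated by pin tool the day after seeding with one drug alone or a fixed anchor-drug dose plus five library-drug doses (not always all listed) in √10 steps, and nuclei were counted on 4× images. Relative viability is the ratio of nuclei in treated wells to nuclei in vehicle wells, taken as the median of duplicate plates.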

GSK-J4 + Bortezomib = compound: CCOC(=O)CCNc1cc(N2CCc3ccccc3CC2)nc(-c2ccccn2)n1 [GSK-J4] + CC(C)C[C@H](NC(=O)[C@H](Cc1ccccc1)NC(=O)c1cnccn1)B(O)O [Bortezomib] (partner 0.002 µM)
How it was run: as §1

AZ3146 + Luminespib = compound: CN1CCC(CC1)OC2=CC(=C(C=C2)NC3=NC=C4C(=N3)N(C(=O)N4C)C5CCCC5)OC [AZ3146] + CCNC(=O)c1noc(-c2cc(C(C)C)c(O)cc2O)c1-c1ccc(CN2CCOCC2)cc1 [Luminespib] (partner 0.01 µM)
How it was run: as §1

AZ3146 + Dasatinib = compound: CN1CCC(CC1)OC2=CC(=C(C=C2)NC3=NC=C4C(=N3)N(C(=O)N4C)C5CCCC5)OC [AZ3146] + Cc1nc(Nc2ncc(C(=O)Nc3c(C)cccc3Cl)s2)cc(N2CCN(CCO)CC2)n1 [Dasatinib] (partner 0.075 µM)
How it was run: as §1

Cell Line	relative viability (GSK-J4 + Decitabine; first compound 0.5 µM)	relative viability (GSK-J4 + Decitabine; first compound 1.581 µM)	relative viability (GSK-J4 + Decitabine; first compound 5 µM)	relative viability (GSK-J4 + Decitabine; first compound 15.81 µM)	relative viability (GSK-J4 + Decitabine; first compound 50 µM)	relative viability (GSK-J4 + Bortezomib; first compound 0.5 µM)	relative viability (GSK-J4 + Bortezomib; first compound 1.581 µM)	relative viability (GSK-J4 + Bortezomib; first compound 5 µM)	relative viability (GSK-J4 + Bortezomib; first compound 15.81 µM)	relative viability (GSK-J4 + Bortezomib; first compound 50 µM)	relative viability (AZ3146 + Luminespib; first compound 0.08 µM)	relative viability (AZ3146 + Luminespib; first compound 0.253 µM)	relative viability (AZ3146 + Luminespib; first compound 0.8 µM)	relative viability (AZ3146 + Luminespib; first compound 2.53 µM)	relative viability (AZ3146 + Luminespib; first compound 8 µM)	relative viability (AZ3146 + Dasatinib; first compound 0.08 µM)	relative viability (AZ3146 + Dasatinib; first compound 0.253 µM)	relative viability (AZ3146 + Dasatinib; first compound 0.8 µM)	relative viability (AZ3146 + Dasatinib; first compound 2.53 µM)	relative viability (AZ3146 + Dasatinib; first compound 8 µM)
201T	0.826	0.886	0.847	0.831	0.875	1.03	1.08	1.05	1.14	1.09	0.994	1.03	0.979	1.09	1.04	0.548	0.59	0.511	0.609	0.625
A549	0.241	0.205	0.246	0.244	0.282															
A-427	0.554	0.528		0.523	0.434	0.937		0.839	0.781	0.789	0.819	0.895	0.913	0.879	0.818	0.561	0.775	0.651	0.828	0.66
ABC-1	1	1.16	1.05	0.883	0.795	0.329	0.246	0.258	0.328	0.327	0.331	0.483	0.782	0.568	0.532	0.493	0.56	0.562	0.713	0.421
BEN	0.762	0.511	0.489	0.679	0.597	0.898	0.719		0.857	0.735		0.224	0.637	0.282	0.269		0.228	0.353	0.322	0.362
CAL-12T						1.06	0.834	0.785	1.01	0.941	0.267	0.573	0.423	0.556	0.341	0.453	0.517	0.369	0.377	0.192
COR-L23	0.393	0.384		0.386	0.352	0.944	0.815		1.01	0.729	0.618	0.693	0.624	0.69	0.611	0.425	0.527	0.509	0.457	0.313
COR-L 105	0.723		0.507	0.644	0.654	0.851	0.521	0.605	0.734	0.856	0.776	0.8	0.815	0.824	0.678	0.394	0.261	0.238	0.288	0.191
Calu-6						0.884	0.912	1.08	1.13	0.898										
ChaGo-K-1	0.535		0.557	0.479	0.471	1.21		0.913	0.972	0.931	0.651	0.528	0.618	0.816	0.588	0.614	0.554	0.512	0.6	0.45
EBC-1						0.436	0.526	0.441	0.61	0.346										
EKVX	0.297		0.355	0.324	0.299	0.981	0.961	1.28	1.01	0.963	0.836	0.842	0.838	0.981	0.899	0.434	0.572	0.5	0.565	0.535
EMC-BAC-2	1	0.862		0.947	0.869	1.08	0.944	0.811	0.965	1.08	1.13	1.16	1.17	1.31	1.22	0.273	0.366	0.38	0.372	0.354
EPLC-272H	0.408	0.33	0.448	0.339	0.308	0.864		1.01	0.851	0.936		0.342	0.519	0.323	0.321		0.396	0.347	0.413	0.287
H3255	0.619		0.593	0.463	0.409	0.858	0.632	0.655	0.579	0.603	0.841	0.801	0.841	0.911	0.866	0.258	0.242	0.339	0.374	0.405
HARA	0.506	0.49		0.506	0.369	1.1	1		1.09	1.08	0.895	0.823	0.711	0.816	0.512	0.274	0.211	0.254	0.217	0.302
HCC-15	0.696	0.492	0.581	0.536	0.38	1.01	0.527	0.943	1.01	0.906	0.262	0.393	0.531	0.785	0.552	0.727	0.64	0.597	0.557	0.491
HCC-44	0.932	0.716	0.823	1.03	1.06	0.842	0.86	0.916	0.892	0.934	0.884	1.02	1.17	1.02	0.999					
HCC-78	0.726	0.633	0.71	0.549	0.621	0.442	0.509	0.565	0.422	0.491						0.254	0.304	0.309	0.354	0.315
HCC-366	0.33	0.283		0.283	0.277	1	1.02		1.01	0.96						0.483	0.57	0.56	0.588	0.572
